Test results published in PubChem BioAssay AID1963843 (Molecular Pharmacology Branch, DTP, NCI, 2024).

System: 616215-338-R-J1-PDC complex spheroid viability
Assay: Anticancer human tumor 616215-338-R-J1-PDC patient-derived colon adenocarcinoma cell line growth inhibition [POLQ]
Conditions: for IC50: curve of first compound; for viability, T/C: stronger effect = lower value
Procedure, shortened: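 PDC + HUVEC + MSC complex spheroids; POLQ inhibitors ± partner drugs; top conc. at/near clinical Cmax, else 10 microM (SN-38 1 microM), half-log dilutions; 37 degrees C, 5% CO2.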

[1] = second compound 0.0316 µM, first compound 0.0316 µM
[2] = second compound 0.0316 µM, first compound 0.1 µM
[3] = second compound 0.0316 µM, first compound 0.316 µM
[4] = second compound 0.0316 µM, first compound 1 µM
[5] = second compound 0.0316 µM, first compound 3.16 µM
[6] = second compound 0.0316 µM, first compound 10 µM
[7] = second compound 0.1 µM, first compound 0.0316 µM
[8] = second compound 0.1 µM, first compound 0.1 µM
[9] = second compound 0.1 µM, first compound 0.316 µM
[10] = second compound 0.1 µM, first compound 1 µM
[11] = second compound 0.1 µM, first compound 3.16 µM
[12] = second compound 0.1 µM, first compound 10 µM
[13] = second compound 0.316 µM, first compound 0.0316 µM
[14] = second compound 0.316 µM, first compound 0.1 µM
[15] = second compound 0.316 µM, first compound 0.316 µM
[16] = second compound 0.316 µM, first compound 1 µM
[17] = second compound 0.316 µM, first compound 3.16 µM
[18] = second compound 0.316 µM, first compound 10 µM
[19] = second compound 1 µM, first compound 0.0316 µM
[20] = second compound 1 µM, first compound 0.1 µM
[21] = second compound 1 µM, first compound 0.316 µM
[22] = second compound 1 µM, first compound 1 µM
[23] = second compound 1 µM, first compound 3.16 µM
[24] = second compound 1 µM, first compound 10 µM
[25] = second compound 3.16 µM, first compound 0.0316 µM
[26] = second compound 3.16 µM, first compound 0.1 µM
[27] = second compound 3.16 µM, first compound 0.316 µM
[28] = second compound 3.16 µM, first compound 1 µM
[29] = second compound 3.16 µM, first compound 3.16 µM
[30] = second compound 3.16 µM, first compound 10 µM
[31] = second compound 10 µM, first compound 0.0316 µM
[32] = second compound 10 µM, first compound 0.1 µM
[33] = second compound 10 µM, first compound 0.316 µM
[34] = second compound 10 µM, first compound 1 µM
[35] = second compound 10 µM, first compound 3.16 µM
[36] = second compound 10 µM, first compound 10 µM
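Also: spheroids exposed to compounds for one week before readout.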
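For viability, T/C in this document: percent viability relative to DMSO vehicle wells taken as 100%.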

CNCc1ccc(-c2[nH]c3cc(F)cc4c3c2CCNC4=O)cc1 + Cc1cccc(N(C)C(=O)C2C(O)CCN2c2nc(C)cc(C(F)(F)F)c2C#N)c1
IC50 (second compound 0.0316 µM): > 10 µM
IC50 (second compound 0.1 µM): > 10 µM
IC50 (second compound 0.316 µM): > 10 µM
IC50 (second compound 1 µM): > 10 µM
IC50 (second compound 3.16 µM): > 10 µM
IC50 (second compound 10 µM): > 10 µM
viability, T/C [1]: 96.9%
viability, T/C [2]: 99.2%
viability, T/C [3]: 105%
viability, T/C [4]: 105%
viability, T/C [5]: 106%
viability, T/C [6]: 86.2%
viability, T/C [7]: 101%
viability, T/C [8]: 97.7%
viability, T/C [9]: 95.5%
viability, T/C [10]: 101%
viability, T/C [11]: 108%
viability, T/C [12]: 73.8%
viability, T/C [13]: 99.8%
viability, T/C [14]: 103%
viability, T/C [15]: 96.6%
viability, T/C [16]: 105%
viability, T/C [17]: 105%
viability, T/C [18]: 72.8%
viability, T/C [19]: 107%
viability, T/C [20]: 108%
viability, T/C [21]: 102%
viability, T/C [22]: 103%
viability, T/C [23]: 112%
viability, T/C [24]: 70%
viability, T/C [25]: 111%
viability, T/C [26]: 109%
viability, T/C [27]: 111%
viability, T/C [28]: 104%
viability, T/C [29]: 102%
viability, T/C [30]: 65.4%
viability, T/C [31]: 122%
viability, T/C [32]: 105%
viability, T/C [33]: 109%
viability, T/C [34]: 107%
viability, T/C [35]: 108%
viability, T/C [36]: 74.7%

C=CC(=O)N1CCN(c2nc(=O)n(-c3c(C)ccnc3C(C)C)c3nc(-c4c(O)cccc4F)c(F)cc23)C(C)C1 (centres undefined) + Nc1ccc(C#CCN(C(=O)Cc2ncc(C(F)(F)F)cc2C(F)(F)F)c2ccc(F)cc2)nn1
IC50 (second compound 0.0316 µM): > 10 µM
IC50 (second compound 0.1 µM): > 10 µM
IC50 (second compound 0.316 µM): > 10 µM
IC50 (second compound 1 µM): > 10 µM
IC50 (second compound 3.16 µM): > 10 µM
IC50 (second compound 10 µM): > 10 µM
viability, T/C [1]: 115%
viability, T/C [2]: 99.3%
viability, T/C [3]: 96.9%
viability, T/C [4]: 99.6%
viability, T/C [5]: 89.2%
viability, T/C [6]: 66.8%
viability, T/C [7]: 103%
viability, T/C [8]: 101%
viability, T/C [9]: 98.3%
viability, T/C [10]: 90.6%
viability, T/C [11]: 85.5%
viability, T/C [12]: 63.5%
viability, T/C [13]: 95.2%
viability, T/C [14]: 96.7%
viability, T/C [15]: 95.2%
viability, T/C [16]: 91%
viability, T/C [17]: 78.8%
viability, T/C [18]: 62.2%
viability, T/C [19]: 96.3%
viability, T/C [20]: 95.2%
viability, T/C [21]: 96.6%
viability, T/C [22]: 94.6%
viability, T/C [23]: 84.4%
viability, T/C [24]: 67.3%
viability, T/C [25]: 92.6%
viability, T/C [26]: 89.2%
viability, T/C [27]: 97.7%
viability, T/C [28]: 93.8%
viability, T/C [29]: 85%
viability, T/C [30]: 67%
viability, T/C [31]: 88.2%
viability, T/C [32]: 94.4%
viability, T/C [33]: 95.2%
viability, T/C [34]: 82.9%
viability, T/C [35]: 87.7%
viability, T/C [36]: 65.4%
